Legend:
Assay type in all cases: in vivo
[1] = test system: Housefly [Musca domestica]; experiment: Housefly insecticidal test; conditions: μg per 25 female flies; mortality after 48 hours
How it was run: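 Dry-film exposure of 25 female houseflies per cage, 48 h; LC50 as μg per 25 flies.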

[2] = test system: Tobacco Budworm [Heliothis virescens (Fabricius)] eggs; experiment: Tobacco budworm egg test; conditions: 2-day old eggs, percent in solution
How it was run: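 Mortality of dipped eggs served as read-out, recorded after untreated controls hatched and began feeding. Treatments used acetone solutions from 0.1% downward, with eggs incubated at 78° F; LC50 is expressed as percent of compound in the solution.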

[3] = test system: Cabbage Looper [Trichoplusia ni (Hubner)]; experiment: Cabbage looper insecticidal test; conditions: second-instar larvae, percent in solution; 3-5 days
How it was run: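 Steps: dilute compound in 50-50 acetone-water from 0.1% downward; immerse cotyledon pieces 2-3 s and dry; place in humid petri dishes with five second-instar larvae; record mortality at 3-5 days. Dosage-mortality curves yield LC50 as percent in solution.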

SMILES	LC50, HF [1]	LC50, TBW, E (TBW-E) [2]	LC50, CL [3]
CC(C)C(=Nc1ccc(F)c(Cl)c1)OCc1coc(Cc2ccccc2)c1 [Compound 474]	8 µg	> 0.1%	0.0012%
CC(C)C(=Nc1cccc(C(F)(F)F)c1)OCc1ccc(OCc2ccccc2)cc1 [Compound 476]	> 100 µg	> 0.1%	0.015%
C=CCOc1cccc(COC(=Nc2cccc(C(F)(F)F)c2)C(C)C)c1 [Compound 480]	> 100 µg	> 0.1%	0.01%
C=CCOc1cccc(COC(=Nc2ccc(Cl)c(Cl)c2)C(C)C)c1 [Compound 481]	> 100 µg	> 0.1%	0.015%
CC(C)C(=Nc1ccc(Cl)cc1)OCc1coc(Cc2ccccc2)c1 [Compound 484]	16 µg	> 0.1%	0.003%
CC(C)C(=Nc1ccc(F)c(F)c1)OCc1coc(Cc2ccccc2)c1 [Compound 485]	24 µg	> 0.1%	> 0.1%
CC(C)C(=Nc1ccc(F)c(Cl)c1)OCc1ccc(OCc2ccc(F)cc2)cc1 [Compound 487]	> 100 µg	> 0.1%	0.023%
CC(C)C(=Nc1cccc(C(F)(F)F)c1)OCc1ccc(OCc2ccc(F)cc2)cc1 [Compound 488]	> 100 µg	> 0.1%	0.025%
CC(C)C(=Nc1cccc(C(F)(F)F)c1)OCc1cccc(OCc2ccc(F)cc2)c1 [Compound 489]	> 100 µg	> 0.1%	< 0.1%
CC(C)C(=Nc1ccc(F)cc1)OCc1coc(Cc2ccccc2)c1 [Compound 491]	9 µg	0.08%	0.0028%
CC(C)C(=Nc1cccc(C(F)(F)F)c1)OCc1cccc(Oc2ccc(Br)cc2)n1 [Compound 493]	36 µg	0.05%	0.0008%
Cc1ccc(Oc2cccc(COC(=Nc3ccc(F)c(Cl)c3)C(C)C)n2)cc1 [Compound 494]	34 µg	> 0.1%	0.003%
Cc1ccc(Oc2cccc(COC(=Nc3cccc(C(F)(F)F)c3)C(C)C)n2)cc1 [Compound 495]	> 100 µg	0.1%	0.012%
CC(C)C(=Nc1ccc(C(C)(C)C)cc1)OCc1cccc(Oc2ccccc2)n1 [Compound 496]	> 100 µg	> 0.1%	0.006%
CC(C)C(=Nc1ccc(C(C)(C)C)cc1)OCc1cccc(Oc2ccc(Cl)cc2)n1 [Compound 497]	> 100 µg	> 0.1%	0.0075%
CC(C)C(=Nc1ccc(F)c(Cl)c1)OC(C)c1cccc(Oc2ccccc2)n1 (stereo not drawn) [Compound 498]	49 µg	> 0.1%	0.002%
CC(C)C(=Nc1cccc(C(F)(F)F)c1)OC(C)c1cccc(Oc2ccccc2)n1 (stereo not drawn) [Compound 499]	63 µg	> 0.1%	0.0024%
COCc1c(F)c(F)c(COC(=Nc2ccc3c(c2)OCO3)C(C)C)c(F)c1F [Compound 501]	20 µg	> 0.1%	0.00045%
